According to article PMC5606850, “Acidic C-terminal domains autoregulate the RNA chaperone Hfq” (eLife, 2017):
Entries after “also recorded” stand apart in the source; their conditions may differ.

Test system: linear pUC19 DNA
Experiment: Hfq binding to linear pUC19 DNA, agarose gel mobility shift
Conditions: 0–3.3 μM Hfq hexamer, 6 nM linear pUC19, 25 °C, 1.5% agarose
Method: Figure 5. CTD and RNAs inhibit DNA binding to Hfq by obstructing the basic rim patch. (A, B) Agarose gel electrophoretic mobility shift assays of 0–3.3 μM hexamer Hfq102, Hfq102-R16A, Hfq65 or Hfq65-R16A binding to 6 nM linear pUC19 DNA (2635 nts) at 25°C, stained with SYBR Gold. Hfq65 forms large aggregates that fail to enter the gel (Figure 5—figure supplement 1). (C, D) Line densitometry of DNA migration in (A, B). Free pUC19 (no Hfq) is shown in light grey. Samples with increasing Hfq concentration are shown in darker shades of grey. (E, F) RNA competition. Complexes of 0.5 μM Hfq102 hexamer and 6 nM linear pUC19 (black) were challenged by 0–2 μM RNA or DNA competitor (darker shades of red). pUC19 control in the absence of Hfq is shown in light grey. Icons indicate the binding surface for each competitor. See Figure 5—figure supplement 2 for gel images. Figure 5—figure supplement 1. Hfq CTD prevents aggregation with DNA. (A) Protease assay. 3.5 µM Hfq hexamer incubated with 6 nM linear (L) plus relaxed circular (N) pUC19 DNA at 25°C, for 30 min, in 50 mM Tris-HCl pH 7.5 and 10 mM CaCl2. The samples were divided in two. One set was diluted with a small amount of buffer and incubated at 25°C for an additional 2 hr. The second set was brought to 0.5% SDS, and 0.4 U Proteinase K (NEB) was added, followed by incubation at 50°C for an additional 2 hr. Loading dye was added to all samples just before they were loaded onto a native gel. […] Digestion of Hfq65 and Hfq65-R16A with Proteinase K liberates DNA from Hfq•DNA aggregates, allowing it to be detected (lanes 9 and 10). (B) Pelleting assay. 3.5 µM Hfq hexamer was incubated with 15 nM 1000 bp DNA (Thermo Scientific) at 25°C for 30 min in 50 mM Tris-HCl pH 7.5. Hfq·DNA aggregates were pelleted by centrifugation at 20,000 × g, 4°C, for 30 min. Supernatants were removed and split in two. The pellet and half the supernatant were brought to 1 M NaCl, and the Hfq·DNA aggregates were further disrupted by phenol-chloroform extraction, before all of the samples were loaded on an agarose gel. […] The small proportion of Hfq65·DNA complexes remaining in the supernatant were only detected in the gel after treatment with salt. […] Competition of Hfq-DNA interactions by small RNAs. EMSAs of 0.5 μM Hfq102 hexamer binding to 6 nM linearized pUC19 plasmid, that were competed with 0.1–2 μM RNAs or DNA at 30°C. Gels were run in a cold room. […]
Samples (10 µL) containing linear pUC19 (0.145 nmol bp), 0–3.333 µM Hfq hexamer, in 40 mM Tris-HCl pH 7.5, 0.14 mM EDTA, 35 mM NH4Cl, 3.7% (v/v) glycerol, 0.05% (w/v) bromophenol blue were incubated at 25°C for 30 min. […] The fluorescence intensity was measured on a line from the bottom edge of the well through the middle of the lane to visualize the migration of pUC19. […]

Row | Substance | binding to linear pUC19 DNA (gel mobility) | binding to linear pUC19 DNA (gel mobility) (listed as R16A)
1 | Hfq65-R16A | rescued the formation of insoluble aggregates; also recorded: complexes migrated more slowly than those formed by similar concentrations of Hfq102 | lowered the maximum gel retardation and increased the intensity of the ‘smear’
2 | Hfq65: truncated E. coli Hfq variant lacking the CTD | At higher protein concentrations, the DNA formed aggregates that were too large to enter the gel | –
3 | Hfq102: full-length E. coli Hfq | The mobility of the DNA-Hfq complexes decreased with added Hfq102 | –
